AC35 data for 69 compounds are collected here from PubChem BioAssay AID624404 (Broad Institute, 2012).

Records with an inconclusive call do not appear.

The assay deals with D54 LucT luciferase reporter counterscreen, luminescence, 24 h. Nature of the assay: luciferase activators in glycosylation-insensitive reporter cells, dose response, counter-screen for N-linked glycosylation inhibitor project, D54 LucT cells, luminescence, cherry pick (AID 624404). On the technique in general: The purpose of a counterscreen is to sort out artefacts and off-target activity.
For `CCN(CC)c1ccc(C(=O)n2cnc3ccccc32)cc1`, the AC35 was 662 nM.

As for `CC1CN(C(=O)c2cc(-c3ccncc3)nc3ccccc23)CC(C)O1` (centres undefined), the AC35 was 1720 nM.

On to `O=C(Nc1ccc(S(=O)(=O)N2CCOCC2)cc1)c1cc(-c2cc(Cl)ccc2O)n[nH]1`, for which the AC35 is 1370 nM.

Turning to `CC1(C)Cc2nc3sc4c(SCC(=O)NCc5ccccc5)ncnc4c3cc2CO1`, the AC35 was 15.7 nM.

With `CC(=O)Nc1cccc(NC(=O)c2ccccc2OCc2ccccc2)c1`, the AC35 was 3830 nM.

As to `Brc1ccc(C2=Nn3c(nnc3-c3n[nH]c4c3CCC4)SC2)cc1`, the AC35 is 394 nM.

Take `COc1ccc(-c2oc3cc(O)c(OC)c(O)c3c(=O)c2OC)cc1O`: the AC35 is 909 nM.

Turning to `CC(Nc1nc(-c2ccccc2)nc2ccccc12)c1ccccc1` (centres undefined), the AC35 was 379 nM.

For the compound `CC#CCN1c2ccccc2[C@]23C[C@@H](C(=O)OC)N(C(=O)c4cc(C)oc4C)C2=NC(C(=O)OC)=C(C(=O)OC)[C@H]13`, the AC35 was 2270 nM.

As for `COc1ccc2c(c1)[C@H]1[C@H](CO2)[C@H](c2ccccc2)[C@]2(C)C(=O)Nc3ccc(F)cc3C(=O)N12`, the AC35 was 582 nM.

Turning to `COc1ccc(Cl)cc1NC(=O)Nc1ccc(C(=O)N2CCCC2)cc1`, the AC35 was 2950 nM.

For `COc1ccc2c(c1)OC[C@H]1[C@H]2N2C(=O)c3cc(Cl)ccc3NC(=O)[C@@]2(C)[C@H]1c1ccccc1`, the AC35 is 996 nM.

`COc1ccccc1-c1csc(C(NC(C)=O)c2ccccc2)n1` (centres undefined): the AC35 is 643 nM.

As for `Cc1ccc(-n2nc(C)c(/C=N/NC(=O)c3cccs3)c2Cl)cc1`, the AC35 was 55.6 nM.

In the case of `COc1cccc(/C=N/NC(=O)c2ccc(N3CCCC3=O)cc2)c1`, the AC35 was 733 nM.

`CC(=O)NC(=C(Cl)Cl)S(=O)(=O)c1ccccc1`: the AC35 is 3670 nM.

For the compound `Cn1cccc1/C=C1\SC(=Nc2ccccc2)NC1=O`, the AC35 was 473 nM.

As for `COCCNC(=O)c1cc(-c2ccccc2OC)on1`, the AC35 is 3840 nM.

For `OCCCNc1c2ccccc2nc2ccccc12`, the AC35 was 4900 nM.

As to `COc1ccccc1NC(=O)c1ccc(-c2ccc(Br)cc2)o1`, the AC35 was 466 nM.

`c1ccc(Cc2nnc(Sc3ccccc3)c3ccccc23)cc1`: the AC35 was 3830 nM.

For the compound `Cc1ccc(-c2nn3c(C)nnc3c3ccccc23)cc1S(=O)(=O)N(C)CCO`, the AC35 was 599 nM.

In the case of `Cc1ccc(Nc2nc(N)nc(CN3CCN(Cc4ccccc4)CC3)n2)cc1Cl`, the AC35 was 107 nM.

Turning to `COc1ccc(OC)c(Nc2ncnc3c2cnn3-c2cccc(C)c2)c1`, the AC35 was 4590 nM.

Consider `COc1ccccc1NS(=O)(=O)c1ccc(-c2cc(C)no2)s1`, for which the AC35 was 18300 nM.

As for `O=C1NC(=O)N(Cc2ccccc2)C(=O)/C1=C/C=C/c1ccco1`, the AC35 is 5280 nM.

`C=CCNc1nc2cc(-c3ccccc3C)sc2c(=O)n1C`: the AC35 was 1110 nM.

On to `Cc1ccc(-n2c(SCC(=O)NCCC3=CCCCC3)nc3n[nH]c(C)c3c2=N)cc1Cl`, for which the AC35 is 39.9 nM.

For `Cc1ccc2nc(SCc3nnc(-c4ccccc4[N+](=O)[O-])o3)c(C#N)cc2c1`, the AC35 was 1300 nM.

`Cc1ccc(N2CC(C(=O)Nc3ccc(S(=O)(=O)N4CCOCC4)cc3)CC2=O)cc1Cl` (centres undefined): the AC35 is 2530 nM.

On to `Cc1cnc2cc(Cl)c(Cl)cc2n1`, for which the AC35 is 5410 nM.

`CCc1nc2ccc(C(=O)NCCc3c[nH]c4ccccc34)cn2c1N(C=O)CCC(C)C`: the AC35 is 645 nM.

With `O=C1Nc2ccccc2/C1=C/c1cnc[nH]1`, the AC35 is 7.09 nM.

For the compound `CC12CC[C@H]3[C@@H](CCC4(O)C[C@H](O)CCC34/C=N/NC(=O)c3ccccc3O)C1(O)CCC2C1=CC(=O)OC1` (some centres undefined), the AC35 was 6220 nM.

Consider `COCCCNC(=O)Cc1c(C)c2c(cc(C)c3c(C(C)(C)C)coc32)oc1=O`, for which the AC35 is 156 nM.

For the compound `CC(=O)Nc1ccc(CC(=O)NCCC(c2ccccc2)c2ccccc2)cc1`, the AC35 is 7670 nM.

For `CC(=O)Nc1ccc(Nc2ccc3c4c(cc(=O)n3C)-c3ccccc3C(=O)c24)cc1`, the AC35 was 345 nM.

As to `O=C(N/N=C/c1ccco1)c1ccccc1OCc1ccccc1Cl`, the AC35 was 1110 nM.

As to `COc1ccc(Nc2oc(-c3ccc(Cl)cc3)nc2C#N)cc1`, the AC35 is 202 nM.

As for `Cc1ccc(S(=O)(=O)N2CCN(C(=O)COC(=O)c3cc([N+](=O)[O-])ccc3NCCO)CC2)c(C)c1`, the AC35 was 1460 nM.

For the compound `COc1ccc2c(c1)[C@H]1[C@H](CO2)[C@H](c2ccccc2)[C@]2(C)C(=O)Nc3ccc(Br)cc3C(=O)N12`, the AC35 is 233 nM.

As for `O=C(CSc1nnc(-c2cc3ccccc3cc2O)n1Cc1ccco1)N1CCc2ccccc2C1`, the AC35 is 1280 nM.

Consider `Cc1nnc2c3ccccc3c(-c3cccs3)nn12`, for which the AC35 is 312 nM.

For `O=c1cc(-c2ccccc2)[nH]c2cc(F)ccc12`, the AC35 was 2380 nM.

For `COc1cc(C(=O)Nc2cc(C(F)(F)F)ccc2N2CCOCC2)ccc1OCC(=O)N1CCOCC1`, the AC35 is 2130 nM.

For the compound `CCOc1ccc(N2CCc3c(C)nc(SC)nc32)cc1`, the AC35 was 3060 nM.

In the case of `COC(=O)Nc1nc2ccc(-c3n[nH]c(=O)c4ccccc34)cc2[nH]1`, the AC35 is 282 nM.

As to `COc1ccc2oc(-c3ccccc3[N+](=O)[O-])cc(=O)c2c1`, the AC35 is 174 nM.

In the case of `CC(C)Sc1ccccc1C(=O)Nc1ccc2c(c1)n(C)c(=O)n2C`, the AC35 is 1820 nM.

Turning to `NC(=O)c1cccc(-c2ccnc3c2CC(C(=O)NCc2ccccc2)O3)c1` (centres undefined), the AC35 was 283 nM.

Regarding `COc1ccc(CNC(=O)c2cccc3c(-c4cccnc4)coc23)cc1OC`, the AC35 is 2600 nM.

For the compound `O=C(NCCc1ccccc1)c1cc(-c2ccco2)on1`, the AC35 was 1010 nM.

Regarding `OCC1OC(n2cnc3c(SCc4ccccc4)ncnc32)C(O)C1O` (centres undefined), the AC35 is 733 nM.

Consider `CCOC(=O)N1CCc2cc(OC)c(OC)c3c2c1cc1cc(OC)c(OC)cc13`, for which the AC35 is 1940 nM.

Turning to `Cc1cc(=O)[nH]c2c(C)cc(S(=O)(=O)N3CCCCC3)cc12`, the AC35 was 411 nM.

As for `O=C(/C=C/c1ccccc1Cl)c1ccc(O)cc1`, the AC35 was 201 nM.

Consider `CC(=O)Nc1cc(-c2cccc(C(=O)N(C)C)c2)cn2c(-c3cccc(C(=O)N(C)C)c3)cnc12`, for which the AC35 is 1740 nM.

With `O=C(COc1ccc(/C=N/NC(=O)c2cc3ccccc3o2)cc1Br)Nc1ccccc1`, the AC35 was 27 nM.

In the case of `CS(=O)(=O)c1cccc(C(=O)Nc2ccc(-c3nc4ccccc4[nH]3)cc2)c1`, the AC35 is 3750 nM.

Turning to `N#Cc1c(N)n(CCc2ccc(F)cc2)c2nc3ccccc3nc12`, the AC35 is 1880 nM.

In the case of `Cc1ccc(-c2nc3ncccc3o2)cc1NC(=O)c1ccc([N+](=O)[O-])o1`, the AC35 was 505 nM.

Take `Cc1ccnc(NC(=O)CN2C(=O)NC(C)(c3ccc4ccccc4c3)C2=O)c1` (centres undefined): the AC35 was 362 nM.

Regarding `CCOc1ccc(/C=C/C(=O)c2ccccc2)cc1OC`, the AC35 is 1260 nM.

`O=C(Nc1cccc2ncccc12)c1ccc([N+](=O)[O-])o1`: the AC35 is 4570 nM.

`Cc1noc(C)c1COc1ccc(C(=O)NNC(=O)c2ccccc2)cc1`: the AC35 was 271 nM.

Take `COc1ccc(-c2cc(C(F)F)n3ncc(C(=O)n4ccnc4C)c3n2)cc1`: the AC35 is 2770 nM.

As for `Cc1ccc(NC(=O)C(Cc2ccccc2)N2C(=O)C3C4CCC(C4)C3C2=O)cc1Cl` (centres undefined), the AC35 is 1680 nM.

For the compound `Cn1cc(C(=O)N/N=C/C(Br)=C/c2ccccc2)ccc1=O`, the AC35 was 3760 nM.

As for `O=C(NCCc1ccccc1)C1c2ccccc2C(=O)N1Cc1cccs1` (centres undefined), the AC35 is 1400 nM.
